Source: ChEMBL document CHEMBL1141370, “Biologically active triterpenoid saponins from Ardisia japonica” (J Nat Prod, 2007)

Tests used:
Format in all cases: cell-based
HL-60 = assay: Cytotoxicity against human HL60 cell line by MTT assay
[1] = Cytotoxicity against human KATO3 cell line by MTT assay
A549 = assay: Cytotoxicity against human A549 cell line by MTT assay

CC1(C)CC[C@]23CO[C@@]4(CC[C@@H]5[C@@]6(C)CC[C@H](O[C@@H]7OC[C@H](O[C@@H]8O[C@H](CO)[C@@H](O)[C@H](O[C@@H]9O[C@H](CO)[C@@H](O)[C@H](O[C@@H]%10O[C@H](CO)[C@@H](O)[C@H](O)[C@H]%10O)[C@H]9O)[C@H]8O[C@@H]8OC[C@@H](O)[C@H](O)[C@H]8O)[C@H](O)[C@H]7O[C@@H]7O[C@H](CO)[C@@H](O)[C@H](O)[C@H]7O)C(C)(C)[C@@H]6CC[C@@]5(C)[C@]4(C)C[C@H]2O)[C@@H]3C1 [ARDISIANOSIDE B]
IC50 (HL-60): 2400 nM | IC50 [1]: 300 nM | IC50 (A549): 3100 nM
